According to paper PMC6273433, “Design, Synthesis and Cytotoxicity of Novel Dihydroartemisinin-Coumarin Hybrids via Click Chemistry” (Molecules, 2016):
pIC50: −log10 of the molar value. Like-named read-outs stand apart in the source and are kept apart here.

Legend:
[1] = system: MDA-MB-231 (human breast carcinoma cell line, CA IX negative); assay: MTT cytotoxicity assay, MDA-MB-231 under anoxia or normoxia; format: cell-based; conditions: for pIC50: Homo sapiens; for MDA-MB-231 Value = IC50(normoxia)/IC50(anoxia): MDA-MB-231, activity promotion under anoxia, >100 set as 100
Method: (§1) We focused our attention on the cytotoxicity of the four series of newly-synthesized compounds (10a–e, 11a–e, 12a–e, and 13a–e) under normoxic or anoxic conditions.
(§2) The data was calculated by the Logit method and presented as IC50 values in Table 1.
(§3) All of the newly-synthesized compounds were screened for in vitro cytotoxicity by MTT assay. The exponentially-growing MRC-5, HCT-116, MDA-MB-231, and HT-29 cells were allowed to grow until 80% confluency, the culture medium was discarded, digested with trypsin, separated centrifugally, then fresh culture medium was added and blown gently into single-cell suspension. Then, the cell suspension was seeded into each well of 96-well microculture plates at a concentration of 1.5 × 10^3–3 × 10^3 cells/well.
(§4) The cells were incubated with 50 μL of 2 mg/mL MTT solution for 4 h in a humidified incubator. The supernatant was discarded, and the media were then replaced with 200 μL of dimethyl sulfoxide to dissolve the purple colored formazan crystals formed in the wells, and their absorbances were measured at 492 nm with a microplate reader (Synergy-HT, BioTek Instruments, Winooski, VT, USA); 200 μL DMSO was set as the blank control.
(§5) The anoxia condition was achieved by placing cells in a sealed hypoxia incubator chamber (Catalog Number 27310, Stemcell Technologies, Inc., Vancouver, BC, Canada) filled with 5% CO2 and 95% N2.

[2] = system: MRC-5 (human fetal lung fibroblast cells, normal lung cell); assay: MTT cytotoxicity assay, MRC-5 normal cells; format: cell-based; conditions: MRC5, MRC-5, normoxia, 96 h MTT
Method: as §1, §2, §3, §4

[3] = system: HT-29 (human colon carcinoma cell line, overexpresses high amounts of CA IX); assay: MTT cytotoxicity assay, HT-29 under anoxia or normoxia; format: cell-based; conditions: for HT-29 Value = IC50(normoxia)/IC50(anoxia): HT-29, activity promotion under anoxia; for pIC50: Homo sapiens
Method: as §1, §2, §3, §4, §5

[4] = system: HCT-116 (human colorectal cancer cell line); assay: MTT cytotoxicity assay, HCT-116 under anoxia or normoxia; format: cell-based; conditions: for HCT-116 Value = IC50(normoxia)/IC50(anoxia): HCT-116, activity promotion under anoxia, >100 set as 100; for pIC50: Homo sapiens
Method: as §1, §2, §3, §4, §5

[5] = MTT cytotoxicity assay, summary statements over all cell lines; format: cell-based; conditions: human, MRC-5, HCT-116, MDA-MB-231 and HT-29 cells; 96 h MTT assay, four cell lines, normoxic or anoxic
Method: as §1, §2, §3, §4, §5

[6] = MDA-MB-231, anoxia 24 h then normoxia 72 h, MTT, read-out: IC50 MDA-MB-231 Anoxia
[7] = MDA-MB-231, normoxia, 96 h MTT, read-out: IC50 MDA-MB-231 Normoxia
[8] = HT-29, anoxia 24 h then normoxia 72 h, MTT, read-out: IC50 HT-29 Anoxia
[9] = HT-29, normoxia, 96 h MTT, read-out: IC50 HT-29 Normoxia
[10] = HCT-116, anoxia 24 h then normoxia 72 h, MTT, read-out: IC50 HCT-116 Anoxia
[11] = HCT-116, normoxia, 96 h MTT, read-out: IC50 HCT-116 Normoxia

SMILES	pIC50 [1, 6]	pIC50 [1, 7]	pIC50 [2]	HT-29 Value = IC50(normoxia)/IC50(anoxia) [3]	pIC50 [3, 8]	pIC50 [3, 9]	melting point [°C]	HCT-116 Value = IC50(normoxia)/IC50(anoxia) [4]	pIC50 [4, 10]	pIC50 [4, 11]	MDA-MB-231 Value = IC50(normoxia)/IC50(anoxia) [1]	IC50 at 96 h [5] [µM]
Cc1c(C)c2ccc(OCc3cn(CCO[C@H]4O[C@@H]5O[C@@]6(C)CC[C@H]7[C@H](C)CC[C@@H]([C@H]4C)[C@@]57OO6)nn3)cc2oc1=O [12c, 7-(1-(2-(10β-Dihydroartemisininoxy)ethyl)-1H-1,2,3-triazol-4-yl)methoxy-3,4-dimethyl-2H-chromen-2-one]	4.48	< 4.00	4.47	6.04	5.54	4.76	84 to 86	1.33	4.92	4.80	–	–
Cc1c(Cl)c(=O)oc2cc(OCc3cn(CCO[C@H]4O[C@@H]5O[C@@]6(C)CC[C@H]7[C@H](C)CC[C@@H]([C@H]4C)[C@@]57OO6)nn3)ccc12 [12d, 3-Chloro-7-(1-(2-(10β-dihydroartemisininoxy)ethyl)-1H-1,2,3-triazol-4-yl)methoxy-4-methyl-2H-chromen-2-one]	4.36	< 4.00	4.21	6.16	5.44	4.65	76 to 78	2.71	5.23	4.80	2.30	–
CCOC(=O)c1cc2ccc(OCc3cn(CCO[C@H]4O[C@@H]5O[C@@]6(C)CC[C@H]7[C@H](C)CC[C@@H]([C@H]4C)[C@@]57OO6)nn3)cc2oc1=O [12e, Ethyl 2-oxo-7-(1-(2-(10β-dihydroartemisininoxy)ethyl)-1H-1,2,3-triazol-4-yl)methoxy-2H-chromene-3-carboxylate]	4.19	< 4.00	4.16	1.88	4.68	4.41	71 to 73	1.62	4.45	4.24	1.54	–
Cc1cc(=O)oc2cc(OCc3cn(CCCO[C@H]4O[C@@H]5O[C@@]6(C)CC[C@H]7[C@H](C)CC[C@@H]([C@H]4C)[C@@]57OO6)nn3)ccc12 [13a, 7-(1-(3-(10β-Dihydroartemisininoxy)propyl)-1H-1,2,3-triazol-4-yl)methoxy-4-methyl-2H-chromen-2-one]	4.44	< 4.00	4.58	4.30	5.19	4.56	75 to 77	2.95	5.02	4.55	2.77	–
C[C@H]1[C@@H](OCCCn2cc(COc3ccc4c(C(F)(F)F)cc(=O)oc4c3)nn2)O[C@@H]2O[C@@]3(C)CC[C@H]4[C@H](C)CC[C@@H]1[C@@]24OO3 [13b, 7-(1-(3-(10β-Dihydroartemisininoxy)propyl)-1H-1,2,3-triazol-4-yl)methoxy-4-trifluoromethyl-2H-chromen-2-one]	4.58	< 4.00	4.67	3.74	5.27	4.70	69 to 71	7.43	5.56	4.69	3.76	–
Cc1c(C)c2ccc(OCc3cn(CCCO[C@H]4O[C@@H]5O[C@@]6(C)CC[C@H]7[C@H](C)CC[C@@H]([C@H]4C)[C@@]57OO6)nn3)cc2oc1=O [13c, 7-(1-(3-(10β-Dihydroartemisininoxy)propyl)-1H-1,2,3-triazol-4-yl)methoxy-3,4-dimethyl-2H-chromen-2-one]	5.38	4.22	4.56	4.23	5.55	4.93	68 to 70	8.95	5.67	4.72	14.29	–
Cc1c(Cl)c(=O)oc2cc(OCc3cn(CCCO[C@H]4O[C@@H]5O[C@@]6(C)CC[C@H]7[C@H](C)CC[C@@H]([C@H]4C)[C@@]57OO6)nn3)ccc12 [13d, 3-Chloro-7-(1-(3-(10β-Dihydroartemisininoxy)propyl)-1H-1,2,3-triazol-4-yl)methoxy-4-methyl-2H-chromen-2-one]	5.44	4.14	4.50	1.87	5.33	5.06	71 to 73	41.38	6.37	4.75	20.03	–
CCOC(=O)c1cc2ccc(OCc3cn(CCCO[C@H]4O[C@@H]5O[C@@]6(C)CC[C@H]7[C@H](C)CC[C@@H]([C@H]4C)[C@@]57OO6)nn3)cc2oc1=O [13e, Ethyl 2-oxo-7-(1-(3-(10β-dihydroartemisininoxy)propyl)-1H-1,2,3-triazol-4-yl)methoxy-2H-chromene-3-carboxylate]	4.59	4.27	4.56	2.22	5.15	4.80	79 to 81	3.65	4.75	4.19	2.07	–
CC(=O)Nc1nnc(S(N)(=O)=O)s1 [AAZ, acetazolamide]	–	–	–	–	–	–	–	–	–	–	–	> 100
